Source: the OPERA property sets (Mansouri et al. 2018)

Details: not given
Compound CCCCCCC#CC(=O)O has a melting point of -8 °C. CCC(C)C1CCCCC1 (centres undefined) showed a boiling point of 179 °C and a log10 vapour pressure (mmHg) of 0.37. With CCCC(=O)c1cc(O)c(O)cc1O the melting point was 154 °C. In the case of C/C=C/C=C/C, the boiling point is reported as 80 °C and the melting point is reported as -79 °C. Compound CC(C)(C)C(=O)CC#N has a melting point of 71 °C. Compound COC(=O)c1cccc([N+](=O)[O-])c1 has a melting point of 78 °C. Work on CCCCCCC(C)(C)O yielded a boiling point of 178 °C. For FC(F)OC(C(F)(F)F)C(F)(F)F, the boiling point was 42.1 °C and the log10 vapour pressure (mmHg) was 2.59. CNC(=S)NCO gave a melting point of 89 °C. Work on O=C(CC(c1ccccc1)c1ccccc1)c1ccccc1 yielded a melting point of 96 °C. In the case of CC(Br)(CBr)COc1c(Br)cc(Br)cc1Br (centres undefined), the ready biodegradability is reported as “not readily biodegradable”. Work on Clc1ccc(C(Cl)(Cl)Cl)cc1 yielded a boiling point of 245 °C. Work on O=[N+]([O-])c1ccc(F)cc1 yielded a boiling point of 205 °C and a melting point of 21 °C. In the case of ClC1=C(Cl)C2(Cl)[C@@H]3C[C@@H](Cl)[C@@H](Cl)[C@@H]3C1(Cl)C2(Cl)Cl (mixture of isomers), the log10 Koa is reported as 8.89. Work on CC1(C)[C@H]2CC[C@]1(C)C(=O)[C@H]2O yielded a melting point of 206 °C. Compound CC(C)CCCO has a boiling point of 152 °C. For NNCc1ccccc1, the melting point was 26 °C. In the case of Nc1ccc2nccnc2c1, the melting point is reported as 159 °C. With C=CCOC(Cn1ccnc1)c1ccc(Cl)cc1Cl (centres undefined) the boiling point was 347 °C, the log10 Koc (L/kg) was 3.73 and the log10 vapour pressure (mmHg) was -5.92. The melting point was 52.7 °C. Compound COc1ccc2nc(N)sc2c1 has a melting point of 166 °C. Compound O=C(O)c1ccc(Br)c([N+](=O)[O-])c1 has a melting point of 204 °C. Compound Clc1ccc2ncccc2c1 has a boiling point of 263 °C and a melting point of 43.8 °C. CCOC(=O)c1ccc(C(=O)OCC)cc1 showed a boiling point of 302 °C and a melting point of 44 °C. With O=C(O)c1cnc[nH]1 the boiling point was 294 °C. In the case of CC[C@H](C)C(C)(C)C, the boiling point is reported as 110 °C, the log10 vapour pressure (mmHg) is reported as 1.51 and the melting point is reported as -112 °C. For CC(=O)c1cccc(O)c1, the boiling point was 296 °C and the melting point was 96 °C. OCCCCCCO showed a boiling point of 250 °C, a log10 vapour pressure (mmHg) of -3.3 and a melting point of 45 °C. With FC(F)(F)C(F)(F)C(F)(F)C(F)(F)C(F)(F)C(F)(F)C(F)(F)Cl the boiling point was 108 °C. For O=C(O)c1ccccc1-c1ccccc1C(=O)O, the melting point was 234 °C and the ready biodegradability was “readily biodegradable”. Work on Cc1cccc2cccnc12 yielded a boiling point of 248 °C, a log10 vapour pressure (mmHg) of -1.6 and a melting point of -80 °C. Work on NC(=O)Oc1ccc(Cc2ccccc2)cc1 yielded a melting point of 148 °C. CCOc1ccc(OCC)cc1 gave a boiling point of 246 °C and a melting point of 72 °C. In the case of CC(C)(O)CC(C)(O)c1ccc(Cl)cc1 (centres undefined), the melting point is reported as 76.5 °C. In the case of Nc1ncnc2[nH]cnc12, the log10 vapour pressure (mmHg) is reported as -10.4. OC(CCN1CCCC1)(c1ccccc1)C1CCCCC1 (centres undefined) showed a melting point of 86 °C. For CCCOC(=O)NCCCN(C)C.Cl, the log10 vapour pressure (mmHg) was -6.54 and the melting point was 64.2 °C. Work on CN(C=O)c1ccccc1 yielded a boiling point of 243 °C and a melting point of 14.5 °C. C#CC(C)(C)NC(=O)c1ccc(C(C)C)cc1 gave a log10 Koc (L/kg) of 2.17. O=[N+]([O-])c1cc(F)ccc1F gave a boiling point of 206 °C and a melting point of -11.7 °C. Work on O=C(c1ccc(O)cc1)c1ccc(O)cc1 yielded a melting point of 210 °C. Compound CC(C)CCC[C@@H](C)[C@H]1CC[C@H]2[C@@H]3CC=C4C=CCC[C@]4(C)[C@H]3CC[C@]12C has a melting point of 80 °C. CC(C)(C)c1ccccc1 gave a boiling point of 169 °C, a log10 vapour pressure (mmHg) of 0.343 and a melting point of -57.8 °C. For the same compound, the ready biodegradability was “readily biodegradable”. Compound CB(C)C has a boiling point of -20.2 °C and a melting point of -162 °C. C#CCN1CC(=O)N(COC(=O)[C@@H]2[C@@H](C=C(C)C)C2(C)C)C1=O gave a log10 vapour pressure (mmHg) of -7.87. For C#CCCCC, the boiling point was 71.3 °C, the log10 vapour pressure (mmHg) was 2.12 and the melting point was -132 °C. In the case of CN1[C@@H]2CC[C@H]1C[C@@H](OC(=O)C(O)c1ccccc1)C2 (mixture of isomers), the melting point is reported as 99.5 °C. With Cc1cc(Cl)c2ccccc2n1 the boiling point was 270 °C and the melting point was 42.5 °C. In the case of Cc1cccc2ncccc12, the boiling point is reported as 263 °C and the melting point is reported as 19 °C. In the case of C=Cc1ccccc1CC, the boiling point is reported as 187 °C, the melting point is reported as -75.5 °C and the ready biodegradability is reported as “not readily biodegradable”. Compound CCC(C)C(CC)C(C)C (centres undefined) has a boiling point of 162 °C. Work on COC yielded a boiling point of -24.8 °C, a log10 Koa of 1.37 and a log10 vapour pressure (mmHg) of 3.65. The melting point was -142 °C and the ready biodegradability was “not readily biodegradable”. With CC(O)CNCCN (centres undefined) the melting point was -50 °C. CC(=O)Nc1cccc(O)c1 gave a melting point of 147 °C. In the case of C=CCN(CC=C)c1c(C)cc(OC(=O)NC)cc1C, the melting point is reported as 67 °C. With CC1=C(C)C2CCC1C2 the boiling point was 140 °C. Compound Cc1c(C)c2c3ccccc3ccc2c2ccccc12 has a melting point of 129 °C. Work on Clc1cccc(Nc2ccccc2)c1 yielded a boiling point of 338 °C. Nc1cccc(Cl)c1 gave a boiling point of 230 °C, a log10 Henry constant (atm·m³/mol) of -6 and a log10 vapour pressure (mmHg) of -1.18. The melting point was -10.4 °C and the ready biodegradability was “not readily biodegradable”. With CCCCCNCCCCC the boiling point was 202 °C, the log10 vapour pressure (mmHg) was -0.815 and the ready biodegradability was “readily biodegradable”. C=CCOc1ccc(CC(=O)O)cc1Cl gave a melting point of 92.5 °C. Work on O=S1OCC2C(CO1)C1(Cl)C(Cl)=C(Cl)C2(Cl)C1(Cl)Cl (centres undefined) yielded a log10 Henry constant (atm·m³/mol) of -4.62, a log10 Koc (L/kg) of 4.11 and a log10 vapour pressure (mmHg) of -6.17. For the same compound, the melting point was 106 °C. Compound CC(C)(C)CN has a boiling point of 82 °C. Compound CCCCCCC(Br)CBr (centres undefined) has a boiling point of 241 °C. Compound c1ccc(N2CCNCC2)cc1 has a boiling point of 286 °C and a log10 vapour pressure (mmHg) of -2.26. With Oc1ccc(O)c(Cl)c1 the boiling point was 263 °C and the melting point was 108 °C. C=C(C)C(C)C gave a boiling point of 55.6 °C, a log10 vapour pressure (mmHg) of 2.4 and a melting point of -157 °C. Work on O=C(O)C1=CC(=C(c2ccc(O)c(C(=O)O)c2)c2ccc(O)c(C(=O)O)c2)C=CC1=O yielded a melting point of 300 °C. Nc1cccc2c1C(=O)c1cccc(N)c1C2=O showed a melting point of 319 °C. CCC1(c2ccccc2)NC(=O)N(C)C1=O (centres undefined) showed a melting point of 136 °C. For CCCCOC(=O)CC#N, the boiling point was 231 °C. In the case of Cc1ccc(Cl)cc1[N+](=O)[O-], the boiling point is reported as 242 °C and the melting point is reported as 38 °C. For Nc1ccc2c3c(cccc13)-c1ccccc1-2, the melting point was 116 °C. For CC=CC(=O)CC, the boiling point was 138 °C. O=S(=O)(Cc1ccccc1)c1ccccc1 showed a melting point of 146 °C. For Clc1ccc2c(Cl)c(Cl)cc(Cl)c2c1, the log10 Koa was 8.08. CC(C)(C)C(O)C(Oc1ccc(-c2ccccc2)cc1)n1cncn1 (centres undefined) showed a melting point of 127 °C. Compound CN(C)c1ccc(N)cc1 has a boiling point of 263 °C and a melting point of 53 °C. Compound CN(C)C(=O)Cl has a boiling point of 167 °C, a log10 vapour pressure (mmHg) of 0.29 and a melting point of -33 °C. With C/C=C/CC(C)C the boiling point was 88.1 °C and the melting point was -124 °C. In the case of CCC(C)(C)Br, the boiling point is reported as 108 °C. In the case of CC(C)(c1cc(Br)c(OCCO)c(Br)c1)c1cc(Br)c(OCCO)c(Br)c1, the melting point is reported as 107 °C and the ready biodegradability is reported as “not readily biodegradable”. With O=C(O)COc1ccc(F)cc1 the melting point was 104 °C. For CCC(=O)CCl, the boiling point was 138 °C. Compound O=c1ccc2ccc(O)cc2o1 has a melting point of 230 °C. In the case of O=[N+]([O-])C(Br)(CO)CO, the melting point is reported as 132 °C and the ready biodegradability is reported as “not readily biodegradable”. Nc1c(Cl)ccc(Cl)c1C(=O)O gave a melting point of 155 °C. CC(=O)CC(c1ccccc1)c1c(O)c2ccccc2oc1=O (centres undefined) showed a log10 Koc (L/kg) of 2.96 and a log10 vapour pressure (mmHg) of -6.94. In the case of O=[N+]([O-])c1ccc(Cl)cc1C(F)(F)F, the ready biodegradability is reported as “not readily biodegradable”. CC(C)c1ccccc1-c1ccccc1 showed a log10 vapour pressure (mmHg) of -3.3. Compound O=S1OCCO1 has a boiling point of 173 °C and a melting point of -11 °C. Work on CC1(C)[C@@H](OC(=O)CCC(=O)O)CC[C@]2(C)[C@H]3C(=O)C=C4[C@@H]5C[C@@](C)(C(=O)O)CC[C@]5(C)CC[C@@]4(C)[C@]3(C)CC[C@@H]12 yielded a melting point of 292 °C. With CCCc1nccnc1C the boiling point was 189 °C. With O=C(Nc1ccc(Cl)c(Cl)c1)c1cc(Cl)ccc1O the melting point was 247 °C. Compound Clc1ccc(Cl)c(-c2cc(Cl)ccc2Cl)c1 has a log10 Henry constant (atm·m³/mol) of -3.7, a log10 Koa of 8.47 and a log10 Koc (L/kg) of 5.12. The ready biodegradability was “not readily biodegradable”. For Cc1nnc2n1-c1sc(Br)cc1C(c1ccccc1Cl)=NC2, the melting point was 213 °C. Compound C=CCN1CC[C@]23c4c5ccc(O)c4O[C@H]2[C@@H](O)C=C[C@H]3[C@H]1C5 has a melting point of 208 °C. For CC(=O)c1ccc(N)cc1, the boiling point was 294 °C and the ready biodegradability was “not readily biodegradable”. Work on COc1cc(CCN)cc(OC)c1OC yielded a melting point of 35.5 °C. O=C1c2cc3ccccc3cc2-c2ccc3ccccc3c21 gave a melting point of 214 °C.

Same assay, conditions: fish
Compound COc1c(Cl)cc(Cl)c(Cl)c1Cl has a log10 BCF of 3.34. For Nc1cccc(Cl)c1, the log10 BCF was 0.35 and the log10 biotransformation half-life (days) was -0.71. Cc1ccc(Cl)cc1[N+](=O)[O-] gave a log10 BCF of 1.92. For O=[N+]([O-])c1ccc(Cl)cc1C(F)(F)F, the log10 BCF was 1.87 and the log10 biotransformation half-life (days) was -0.36. Clc1ccc(Cl)c(-c2cc(Cl)ccc2Cl)c1 showed a log10 BCF of 4.26. Compound COP(=S)(OC)Oc1ccc(S(C)=O)c(C)c1 (centres undefined) has a log10 BCF of 0.12 and a log10 biotransformation half-life (days) of -0.38.
